Tested on: 945468-187-T-J3-PDC spheroids with HUVEC/MSC, viability
Assay: Anticancer human tumor 945468-187-T-J3-PDC patient-derived rectal carcinoma cell line growth inhibition [PI3K]
Details: for IC50: curve of first compound; for viability, T/C: stronger effect = lower value
Excerpt: Combinatorial screen of targeted agents with the PI3K inhibitors inavolisib, alpelisib, duvelisib, and copanlisib in multi-cell type tumor spheroids
A high-throughput screen of multi-cell type tumor spheroids was designed to identify active combinations of targeted small molecules and PI3K pathway inhibitors. Complex spheroids include a stromal component modeled by human endothelial cells (HUVEC) and fibroblasts modeled by human mesenchymal stem cells (MSCs). The concentration ranges selected for each drug and investigational agent were based upon clinically achievable concentrations if the clinical Cmax of the agent was known.
Compounds. The drugs and investigational agents: inavolisib (NSC800729), alpelisib (NSC765974), duvelisib (NSC772469), copanlisib (NSC816437), ipatasertib (NSC767898), afuresertib (NSC778305), talazoparib (NSC767125), sapanisertib (NSC764658), selumetinib (NSC741078), tovorafenib (DAY101, NSC766906), vemurafenib (NSC761431), ravoxertinib (NSC781343), sotorasib (NSC818433), MRTX1133 (NSC 836407), abemaciclib (NSC 768073), palbociclib (NSC758247), venetoclax (NSC 766270), SY5609 (NSC837396), enzalutamide (NSC755605), and darolutamide (NSC825331), were obtained from the National Cancer Institute (NCI) Developmental Therapeutics Program Chemical Repository. The FDA-approved anticancer drug set is available from the NCI Developmental Therapeutics Program. […] The stock solutions were prepared in dimethyl sulfoxide (DMSO, Sigma-Aldrich, St. Louis, MO, cat. D2650) at 800-fold the tested concentration and stored at -70 degrees C prior to their use. All drugs and investigational agents were tested over a range starting from a high concentration at or near the clinical Cmax and decreasing in half-log increments. If the clinical Cmax for an agent had not been determined, the highest concentration tested was 10 microM.
Cell Culture. All cells were maintained in an incubator at 37 degrees C and 5% CO2 with 95% humidity. The PDC lines were cultured according to standard operating procedures established by the NCI PDMR (https://pdmr.cancer.gov/sops/default.htm). All PDCs were thawed and cultured in Matrigel-coated flasks prepared with a working solution of 1X Ham's F-12 nutrient mix, without supplementation (Invitrogen, Waltham, MA, cat. 11765054), 100 U/mL penicillin-streptomycin (Invitrogen, cat. 15140122), and 2.5% Matrigel (Corning Inc., Corning, NY, cat. 354248) for the first three passages. The 354836-022-R-J1-PDC, 475296-252-R-J1-PDC, and 997726-040-R-J2-PDC lines were cultured in 6A media, which includes advanced DMEM/F-12 (Thermo Fisher Scientific, cat. 12634028), 10 mM HEPES (Thermo Fisher Scientific, cat. 15630080), 1X GlutaMAX supplement (Thermo Fisher Scientific, cat. 35050061), 0.1 mg/mL primocin (InvivoGen, San Diego, CA, cat. ant-pm-2), 10% defined fetal bovine serum, heat inactivated (HyClone Laboratories Inc., Logan, UT, cat. SH30070.03HI), 50% L-WRN conditioned media (ATCC, cat. CRL-3276), 1.25 mM N-Acetyl-L-cysteine (Sigma-Aldrich, cat. A9165), 10 mM nicotinamide (Sigma-Aldrich, cat. N0636), 1X B-27 supplement (Thermo Fisher Scientific, cat. 17504044), 1X N-2 supplement (Thermo Fisher Scientific, cat. 17502048), and 10 microM Y-27632 dihydrochloride (Tocris Bioscience, Bristol, United Kingdom, cat. 1254). The 624824-186-R-J2-PDC line was cultured in 6C/Colon 1B media, which includes all 6A media components plus 50 ng/mL human EGF recombinant protein (Thermo Fisher Scientific, cat. PHG0311). […]
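Note: spheroids exposed to agents for 7 days before viability read.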
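Throughout, for viability, T/C: 100% = DMSO vehicle control viability.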

In the case of `CCCS(=O)(=O)Nc1ccc(F)c(C(=O)c2c[nH]c3ncc(-c4ccc(Cl)cc4)cc23)c1F` + CC(Nc1ccc2c(c1)OCCn1cc(N3C(=O)OCC3C(F)F)nc1-2)C(N)=O, the IC50 (second compound 0.00316 µM) is reported as 6.24 µM, the IC50 (second compound 0.01 µM) is reported as 6.4 µM and the IC50 (second compound 0.0316 µM) is reported as 6.62 µM. For the same compound, the IC50 (second compound 0.1 µM) was 7.15 µM, the IC50 (second compound 0.316 µM) was 6.37 µM and the IC50 (second compound 1 µM) was 3.27 µM. For the same compound, the viability, T/C (second compound 0.00316 µM, first compound 0.0316 µM) was 105%, the viability, T/C (second compound 0.00316 µM, first compound 0.1 µM) was 96.9% and the viability, T/C (second compound 0.00316 µM, first compound 0.316 µM) was 93%. For the same compound, the viability, T/C (second compound 0.00316 µM, first compound 1 µM) was 104%, the viability, T/C (second compound 0.00316 µM, first compound 3.16 µM) was 97.1% and the viability, T/C (second compound 0.00316 µM, first compound 10 µM) was 17.3%. It also gave a viability, T/C (second compound 0.01 µM, first compound 0.0316 µM) of 105%, a viability, T/C (second compound 0.01 µM, first compound 0.1 µM) of 88.7% and a viability, T/C (second compound 0.01 µM, first compound 0.316 µM) of 104%. The viability, T/C (second compound 0.01 µM, first compound 1 µM) was 102%, the viability, T/C (second compound 0.01 µM, first compound 3.16 µM) was 110% and the viability, T/C (second compound 0.01 µM, first compound 10 µM) was 17.3%. It also gave a viability, T/C (second compound 0.0316 µM, first compound 0.0316 µM) of 98.5%, a viability, T/C (second compound 0.0316 µM, first compound 0.1 µM) of 108% and a viability, T/C (second compound 0.0316 µM, first compound 0.316 µM) of 97.7%. For the same compound, the viability, T/C (second compound 0.0316 µM, first compound 1 µM) was 94.3%, the viability, T/C (second compound 0.0316 µM, first compound 3.16 µM) was 100% and the viability, T/C (second compound 0.0316 µM, first compound 10 µM) was 22.2%. It also gave a viability, T/C (second compound 0.1 µM, first compound 0.0316 µM) of 101%, a viability, T/C (second compound 0.1 µM, first compound 0.1 µM) of 102% and a viability, T/C (second compound 0.1 µM, first compound 0.316 µM) of 104%. The viability, T/C (second compound 0.1 µM, first compound 1 µM) was 99.7%, the viability, T/C (second compound 0.1 µM, first compound 3.16 µM) was 121% and the viability, T/C (second compound 0.1 µM, first compound 10 µM) was 27%. The viability, T/C (second compound 0.316 µM, first compound 0.0316 µM) was 98.7%, the viability, T/C (second compound 0.316 µM, first compound 0.1 µM) was 108% and the viability, T/C (second compound 0.316 µM, first compound 0.316 µM) was 98.5%. For the same compound, the viability, T/C (second compound 0.316 µM, first compound 1 µM) was 114%, the viability, T/C (second compound 0.316 µM, first compound 3.16 µM) was 97.6% and the viability, T/C (second compound 0.316 µM, first compound 10 µM) was 18.9%. It also gave a viability, T/C (second compound 1 µM, first compound 0.0316 µM) of 66%, a viability, T/C (second compound 1 µM, first compound 0.1 µM) of 66.6% and a viability, T/C (second compound 1 µM, first compound 0.316 µM) of 74.9%. It also gave a viability, T/C (second compound 1 µM, first compound 1 µM) of 69.4%, a viability, T/C (second compound 1 µM, first compound 3.16 µM) of 51.1% and a viability, T/C (second compound 1 µM, first compound 10 µM) of 13.9%.

Source: PubChem BioAssay AID1963968 (Molecular Pharmacology Branch, DTP, NCI, 2024)
